Results: patent US12678431B2, “Pharmaceutical composition for treatment of dementia and cerebrovascular disorders” (FUSO PHARMACEUTICAL INDUSTRIES, LTD., priority 2019, dated 2026)

Assays:
Format in all cases: in vivo
[1] = test system: matrix metalloproteinase 9 (MMP-9); experiment: Test for suppression of blood-brain barrier disruption (western blotting, MMP-9 antibody) in vascular dementia disease model mouse; conditions: BCAS model mouse; 100 μmol/kg oral or intraperitoneal, three times/week; hippocampus and striatal tissue, 7 days after the surgery; FIG. 2
Description: (§1) Firstly, according to a general preparation method for vascular dementia disease model mouse (for example, Shibata M, Ohtani R, Ihara M, et al., Stroke 35: 2598-2603, 2004; or Ihara M, Taguchi A, Maki T, et al., Methods Mol Biol 1135: 95-102, 2014), the mouse was equipped with a 0.18 mm microcoil into a right common carotid artery of the mice and a 0.16 mm microcoil into a left common carotid artery thereof.
Next, a vascular dementia disease model mouse (hereinafter sometimes referred to as Bilateral common artery stenosis (BCAS) model) was prepared according to the below-mentioned schedule as shown in FIG. 1. […]
The vascular dementia disease model mouse which was prepared in the Test Example 1 was euthanized on 7 days after the surgery. […] The homogenate was crushed with ultrasonic while cooling on ice, and after centrifuging, the supernatant was subjected to a protein quantification by a bicinchoninic acid (BCA) method. Thereafter, the prepared protein sample was evaluated on an effect on suppression of blood-brain barrier disruption according to a western blotting method using antibody against matrix metalloproteinase 9 (MMP-9) similarly to a generally known method. […]

[2] = test system: myelin basic protein (MBP); experiment: Test for suppression against reduction of a myelin basic protein (MBP), brain section immunostaining in vascular dementia disease model mouse; conditions: BCAS model mouse; 100 μmol/kg oral or intraperitoneal, three times/week; brain frozen section, 28 days after the surgery; FIG. 3
Description: as §1
(§2) Next, a vascular dementia disease model mouse (hereinafter sometimes referred to as Bilateral common artery stenosis (BCAS) model) was prepared according to the below-mentioned schedule as shown in FIG. 1.
Ethoxyquin or methyldopa were administered by an oral administration or an intraperitoneal administration in a dose of 100 μmol/kg by a ratio of three times/week until the completion of the test (for example, for 1 to 4 weeks). Here the test results in the case where a healthy mouse as control was used is shown.
The vascular dementia disease model mouse which was prepared in the Test Example 1 was euthanized on 28 days after the surgery. The frozen section of the brain of the mice (N (number of animal)=6 to 8 animals) were immobilized in cold acetone for 10 minutes, and washed with PBS for 5 minutes (× three times). […]

[3] = test system: vascular dementia disease model mouse (BCAS model); experiment: Novel object recognition test in vascular dementia disease model mouse; conditions: 100 μmol/kg oral or intraperitoneal, three times/week, FIG. 4
Description: as §1, §2
Ethoxyquin or methyldopa were administered by an oral administration or an intraperitoneal administration in a dose of 100 μmol/kg by a ratio of three times/week until the completion of the test (for example, for 1 to 4 weeks). […]
A novel object recognition test was conducted by utilizing rodent's character of seeking novelty. […] After a certain times were passed, one of the object was changed by a novel object, and the animals were placed in the same observation box again, and the time exploring an object was measured for 10 minutes (Test trial). The time exploring a novel object or the time exploring the learned object were defined as “N” or “F” respectively, and were calculated by the following equation: the Exploration time=N+F, and the Discrimination Index=(N−F)/(N+F). […]

[4] = test system: vascular dementia disease model mouse (BCAS model); experiment: Test for influence on cerebral blood flow (Laser-Doppler blood flow meter) in vascular dementia disease model mice; conditions: 50, 75 or 100 μmol/kg oral or intraperitoneal, three times/week, measured up to 14 days after surgery, FIG. 5
Description: as §1, §2
In the vascular dementia disease model mice (N (number of animals)=6 to 8 animals) that were prepared in the Test Example 1, a cerebral blood flow of a boundary region (blegma) between middle cerebral artery and anterior cerebral artery was measured at immediately before ischemic surgery, immediately after ischemic surgery, after 1 day, after 4 days, after 7 days or after 14 days. A Laser-Doppler blood flow meter was fixed on a skull, and a cerebral blood flow was measured, and the cerebral blood flow was evaluated as a ratio thereof to cerebral blood flow immediately before ischemic surgery. […]

Structure (SMILES)	effect on suppressing a blood-brain barrier disruption (MMP-9 western blotting) [1]	effect on suppression of the reduction of myelin basic protein [2]	novel object recognition (cognitive dysfunction, long-term spatial memory; Discrimination Index) [3]	influence on cerebral blood flow (ratio to flow immediately before ischemic surgery) [4]
CCOc1ccc2c(c1)C(C)=CC(C)(C)N2 [Compound 1, 6-Ethoxy-2,2,4-trimethyl-1,2-dihydroquinoline]	suggested an effect on suppressing a blood-brain barrier disruption	suggested an effect on a suppression of the reduction of myelin basic protein	showed an improved cognitive dysfunction in a long-term spatial memory	do not affect any cerebral blood flow
C[C@](N)(Cc1ccc(O)c(O)c1)C(=O)O [Compound 2, Methyldopa sesquihydrates]	suggested an effect on suppressing a blood-brain barrier disruption	suggested an effect on a suppression of the reduction of myelin basic protein	showed an improved cognitive dysfunction in a long-term spatial memory	do not affect any cerebral blood flow
